{"source": "patent US20080114047A1", "about": "(priority 2003, published 2008)", "key": {"[1]": {"system": "Trypanosoma brucei rhodesiense", "test": "Anti-protozoan data: T.b.r. IC50", "assay_type": "cell-based", "conditions": "read-out: T.b.r. IC50"}, "J774 macrophages": {"system": "J774 macrophages", "test": "Toxicity against J774 macrophages (IC50)", "assay_type": "cell-based", "conditions": "Mus musculus, Tables I-III, V"}, "Aspergillus fumigatus": {"system": "Aspergillus fumigatus", "test": "Anti-fungal data: Aspergillus fumigatus", "assay_type": "cell-based", "conditions": "for MIC: strain DUMC 168.95, read-out: Aspergillus. Fumigatus (DUMC 168.95) MIC100"}, "Cryptococcus neoformans": {"system": "Cryptococcus neoformans", "test": "Anti-fungal data: Cryptococcus neoformans", "assay_type": "cell-based", "conditions": "for MFC / MIC80: strain H99; for MIC: strain H99, read-out: Cryptococcus neoformans (H99) MIC100"}, "DNA": {"system": "DNA", "test": "DNA binding ΔTm", "conditions": "Tables VI(a), VI(c)"}, "Candida albicans": {"system": "Candida albicans", "test": "Anti-fungal data: Candida albicans", "assay_type": "cell-based", "conditions": "for MFC / MIC80: strain A39; for MIC: strain A39, read-out: Candida albicans (A39) MIC100"}, "[2]": {"system": "Mycobacterium tuberculosis", "test": "Compounds tested against Mycobacterium tuberculosis (MIC90)", "assay_type": "cell-based", "conditions": "read-out: M. tb. MIC90"}, "Trypanosoma cruzi": {"system": "Trypanosoma cruzi", "test": "Anti-protozoan data: T. cruzi IC50", "assay_type": "cell-based", "conditions": "read-out: T. cruzi IC50"}, "Plasmodium falciparum": {"system": "Plasmodium falciparum", "test": "Anti-protozoan data: P. falcip. IC50", "assay_type": "cell-based", "conditions": "read-out: P. falcip. IC50"}, "[3]": {"system": "L. donovani axenic amastigotes", "test": "In vitro anti-leishmania activity (IC50 vs. L. donovani axenic amastigotes)", "assay_type": "cell-based", "conditions": "for IC50: Leishmania donovani"}, "[4]": {"conditions": "Tables VI(a), VI(c), read-out: Leishmania donovani IC50"}, "[5]": {"conditions": "axenic amastigotes, Tables I-V, read-out: IC50 vs. L. donovani"}}, "note": "“And” between values parts separate entries of the source, which are not always exact repeats. Identical values can stand only once. Like-named read-outs stand apart in the source and are kept apart here."}
{"compound": "Cl.Cl.N=C(N)c1ccc2oc(CCc3cc4cc(C(=N)N)ccc4o3)cc2c1", "note": "[Compound 8, 2-(2-(5-Amidinobenzofuran-2-yl)ethyl)benzofuran-5-carboxamidine dihydrochloride]", "values": [{"measurement": "IC50", "setting": "[1]; Tables VI(a), VI(c)", "result": 0.0079, "unit": "µM"}, {"measurement": "IC50", "setting": "J774 macrophages", "result": "15 ± 1", "unit": "µM"}, {"measurement": "MIC80", "setting": "Aspergillus fumigatus; strain DUMC 168.95", "result": "> 100", "unit": "µg/mL"}, {"measurement": "MIC", "setting": "Aspergillus fumigatus", "result": "> 100", "unit": "µg/mL"}, {"measurement": "MFC", "setting": "Cryptococcus neoformans", "result": 100, "unit": "µg/mL"}, {"measurement": "MIC80", "setting": "Cryptococcus neoformans", "result": 100, "unit": "µg/mL"}, {"measurement": "MIC", "setting": "Cryptococcus neoformans", "result": 100, "unit": "µg/mL"}, {"measurement": "DNA binding Δ Tm", "setting": "DNA", "result": 6.1}, {"measurement": "MFC", "setting": "Candida albicans", "result": 100, "unit": "µg/mL"}, {"measurement": "MIC80", "setting": "Candida albicans", "result": 100, "unit": "µg/mL"}, {"measurement": "MIC", "setting": "Candida albicans", "result": 100, "unit": "µg/mL"}, {"measurement": "MIC90", "setting": "[2]", "result": "5.15 µg/mL and 11.6 µM"}, {"measurement": "IC50", "setting": "Trypanosoma cruzi; Tables VI(a), VI(c)", "result": 12.3, "unit": "µM"}, {"measurement": "IC50", "setting": "Plasmodium falciparum; Tables VI(a), VI(c)", "result": 0.0025, "unit": "µM"}, {"measurement": "selectivity for axenic amastigotes over J774 macrophages (fold more active against the parasites compared to the mammalian host cells)", "setting": "[3]; L. donovani vs. J774 macrophages", "result": 14, "unit": "fold"}, {"measurement": "IC50", "setting": "[3]; [4]", "result": "1.06 ± 0.18", "unit": "µM"}, {"measurement": "IC50", "setting": "[3]; [5]", "result": "1.06 ± 0.18", "unit": "µM"}, {"measurement": "IC50", "setting": "in vitro", "result": 21.5, "unit": "µM"}]}
{"compound": "Cl.Cl.N=C(N)c1ccc(OCCCOc2ccc(-c3cc4cc(C(=N)N)ccc4o3)cc2)cc1", "note": "[Compound 44, 2-(4-(3-(4-Carbamimidoylphenoxy)propoxy)phenyl)benzofuran-5-carboxamidine dihydrochloride]", "values": [{"measurement": "IC50", "setting": "[1]", "result": 0.451, "unit": "µM"}, {"measurement": "IC50", "setting": "J774 macrophages", "result": "2.7 ± 0.3", "unit": "µM"}, {"measurement": "MIC80", "setting": "Aspergillus fumigatus; strain DUMC 168.95", "result": 10, "unit": "µg/mL"}, {"measurement": "MIC", "setting": "Aspergillus fumigatus", "result": "> 100", "unit": "µg/mL"}, {"measurement": "DNA binding Δ Tm", "setting": "DNA", "result": 18.7}, {"measurement": "MFC", "setting": "Candida albicans", "result": 10, "unit": "µg/mL"}, {"measurement": "MIC80", "setting": "Candida albicans", "result": "≤ 1", "unit": "µg/mL"}, {"measurement": "MIC", "setting": "Candida albicans", "result": "≤ 1", "unit": "µg/mL"}, {"measurement": "MIC90", "setting": "[2]", "result": "0.45 µg/mL and 0.86 µM"}, {"measurement": "IC50", "setting": "Trypanosoma cruzi", "result": 16.9, "unit": "µM"}, {"measurement": "IC50", "setting": "Plasmodium falciparum", "result": 0.0414, "unit": "µM"}, {"measurement": "IC50", "setting": "[3]; [5]", "result": "0.78 ± 0.21", "unit": "µM"}, {"measurement": "IC50", "setting": "in vitro", "result": 7.32, "unit": "µM"}, {"measurement": "melting point", "result": "287 to 289", "unit": "°C"}]}
{"compound": "Cl.Cl.N=C(N)c1ccc(OCCCCCCOc2ccc(-c3cc4cc(C(=N)N)ccc4o3)cc2)cc1", "note": "[Compound 53, 2-(4-(6-(4-Carbamimidoylphenoxy)hexyloxy)phenyl)benzofuran-5-carboxamidine dihydrochloride]", "values": [{"measurement": "IC50", "setting": "[1]; Tables VI(a), VI(c)", "result": 0.368, "unit": "µM"}, {"measurement": "IC50", "setting": "J774 macrophages", "result": "0.6 ± 0.07", "unit": "µM"}, {"measurement": "MIC80", "setting": "Aspergillus fumigatus; strain DUMC 168.95", "result": 12.5, "unit": "µg/mL"}, {"measurement": "MIC", "setting": "Aspergillus fumigatus", "result": "> 100", "unit": "µg/mL"}, {"measurement": "MFC", "setting": "Cryptococcus neoformans", "result": 6.25, "unit": "µg/mL"}, {"measurement": "MIC80", "setting": "Cryptococcus neoformans", "result": 1.56, "unit": "µg/mL"}, {"measurement": "MIC", "setting": "Cryptococcus neoformans", "result": 3.12, "unit": "µg/mL"}, {"measurement": "MFC", "setting": "Candida albicans", "result": 3.12, "unit": "µg/mL"}, {"measurement": "MIC80", "setting": "Candida albicans", "result": 1.56, "unit": "µg/mL"}, {"measurement": "MIC", "setting": "Candida albicans", "result": 3.12, "unit": "µg/mL"}, {"measurement": "MIC90", "setting": "[2]", "result": "3.74 µg/mL and 6.84 µM"}, {"measurement": "IC50", "setting": "Trypanosoma cruzi; Tables VI(a), VI(c)", "result": 6.21, "unit": "µM"}, {"measurement": "IC50", "setting": "Plasmodium falciparum; Tables VI(a), VI(c)", "result": 0.263, "unit": "µM"}, {"measurement": "IC50", "setting": "[3]; [4]", "result": "0.65 ± 0.17", "unit": "µM"}, {"measurement": "IC50", "setting": "[3]; [5]", "result": "0.65 ± 0.17", "unit": "µM"}, {"measurement": "IC50", "setting": "in vitro", "result": 3.29, "unit": "µM"}, {"measurement": "melting point", "result": "310 to 311", "unit": "°C"}]}
{"compound": "Cl.Cl.N=C(N)c1ccc(OCCCCCOc2cccc(-c3cc4ccc(C(=N)N)cc4o3)c2)cc1", "note": "[Compound 62, 2-(3-(5-(4-Carbamimidoylphenoxy)pentyloxy)phenyl)benzofuran-6-carboxamidine dihydrochloride]", "values": [{"measurement": "IC50", "setting": "[1]; Tables VI(a), VI(c)", "result": 0.531, "unit": "µM"}, {"measurement": "IC50", "setting": "J774 macrophages", "result": "5.6 ± 0.3", "unit": "µM"}, {"measurement": "MFC", "setting": "Aspergillus fumigatus; strain DUMC 168.95", "result": "> 100", "unit": "µg/mL"}, {"measurement": "MIC80", "setting": "Aspergillus fumigatus; strain DUMC 168.95", "result": 1.56, "unit": "µg/mL"}, {"measurement": "MIC", "setting": "Aspergillus fumigatus", "result": 3.12, "unit": "µg/mL"}, {"measurement": "MFC", "setting": "Cryptococcus neoformans", "result": 0.78, "unit": "µg/mL"}, {"measurement": "MIC80", "setting": "Cryptococcus neoformans", "result": 0.39, "unit": "µg/mL"}, {"measurement": "MIC", "setting": "Cryptococcus neoformans", "result": 0.39, "unit": "µg/mL"}, {"measurement": "MFC", "setting": "Candida albicans", "result": 1.56, "unit": "µg/mL"}, {"measurement": "MIC80", "setting": "Candida albicans", "result": 0.39, "unit": "µg/mL"}, {"measurement": "MIC", "setting": "Candida albicans", "result": 0.39, "unit": "µg/mL"}, {"measurement": "MIC90", "setting": "[2]", "result": "0.65 µg/mL and 1.15 µM"}, {"measurement": "IC50", "setting": "Trypanosoma cruzi; Tables VI(a), VI(c)", "result": 8.56, "unit": "µM"}, {"measurement": "IC50", "setting": "Plasmodium falciparum; Tables VI(a), VI(c)", "result": 0.282, "unit": "µM"}, {"measurement": "IC50", "setting": "[3]; [4]", "result": "5.75 ± 0.06", "unit": "µM"}, {"measurement": "IC50", "setting": "[3]; [5]", "result": "5.75 ± 0.06", "unit": "µM"}, {"measurement": "IC50", "setting": "in vitro", "result": 4.12, "unit": "µM"}, {"measurement": "melting point", "result": "178 to 182", "unit": "°C"}]}
{"compound": "CC(C)NC(=N)c1ccc(OCCCCCOc2ccc(-c3cc4ccc(C(=N)NC(C)C)cc4o3)cc2)cc1.Cl.Cl", "note": "[Compound 75, 2-(4-(5-(4-(N-Isopropylcarbamimidoyl)phenoxy)pentyloxy)phenyl)-N-isopropylbenzofuran-6-carboxamidine dihydrochloride]", "values": [{"measurement": "IC50", "setting": "[1]; Tables VI(a), VI(c)", "result": 0.557, "unit": "µM"}, {"measurement": "IC50", "setting": "J774 macrophages", "result": "2.7 ± 0.1", "unit": "µM"}, {"measurement": "MIC90", "setting": "[2]", "result": "1.19 µg/mL and 1.92 µM"}, {"measurement": "IC50", "setting": "Trypanosoma cruzi; Tables VI(a), VI(c)", "result": 8.92, "unit": "µM"}, {"measurement": "IC50", "setting": "Plasmodium falciparum; Tables VI(a), VI(c)", "result": 0.0744, "unit": "µM"}, {"measurement": "IC50", "setting": "[3]; [4]", "result": "1.38 ± 0.18", "unit": "µM"}, {"measurement": "IC50", "setting": "[3]; [5]", "result": "1.38 ± 0.18", "unit": "µM"}, {"measurement": "IC50", "setting": "in vitro", "result": 10.7, "unit": "µM"}, {"measurement": "melting point", "result": "255 to 257", "unit": "°C"}]}
{"compound": "CC(C)NC(=N)c1ccc(OCCCCCCOc2ccc(-c3cc4ccc(C(=N)NC(C)C)cc4o3)cc2)cc1.Cl.Cl", "note": "[Compound 78, 2-(4-(6-(4-(N-Isopropylcarbamimidoyl)phenoxy)hexyloxy)phenyl)-N-isopropylbenzofuran-6-carboxamidine dihydrochloride]", "values": [{"measurement": "IC50", "setting": "[1]; Tables VI(a), VI(c)", "result": 0.884, "unit": "µM"}, {"measurement": "IC50", "setting": "J774 macrophages", "result": "0.73 ± 0.03", "unit": "µM"}, {"measurement": "MIC90", "setting": "[2]", "result": "2.11 µg/mL and 3.33 µM"}, {"measurement": "IC50", "setting": "Trypanosoma cruzi; Tables VI(a), VI(c)", "result": 3.48, "unit": "µM"}, {"measurement": "IC50", "setting": "Plasmodium falciparum; Tables VI(a), VI(c)", "result": 0.0519, "unit": "µM"}, {"measurement": "IC50", "setting": "[3]; [4]", "result": "2.62 ± 0.35", "unit": "µM"}, {"measurement": "IC50", "setting": "[3]; [5]", "result": "2.62 ± 0.35", "unit": "µM"}, {"measurement": "IC50", "setting": "in vitro", "result": 4.9, "unit": "µM"}, {"measurement": "melting point", "result": "264 to 268", "unit": "°C"}]}
